From ChEMBL document CHEMBL1140481, “Synthesis and identification of novel 11beta-aryl-4',5'-dihydrospiro[estra-4,9-diene-17beta,4'-oxazole] analogs with dissociated antiprogesterone activities” (Bioorg Med Chem Lett, 2007)

How the values were obtained:
Homo sapiens = species: Homo sapiens; assay: Ratio of IC50 for glucocorticoid receptor to IC50 for progesterone receptor
Progesterone receptor = biological target: T1, Progesterone receptor (Homo sapiens, UniProt P06401); assay: Antagonist activity at progesterone receptor expressed in human T47D cells assessed as inhibition of promegestone-induced alkaline phosphatase activity; assay type: functional, cell-based
T1 sequence (P06401 whole entry): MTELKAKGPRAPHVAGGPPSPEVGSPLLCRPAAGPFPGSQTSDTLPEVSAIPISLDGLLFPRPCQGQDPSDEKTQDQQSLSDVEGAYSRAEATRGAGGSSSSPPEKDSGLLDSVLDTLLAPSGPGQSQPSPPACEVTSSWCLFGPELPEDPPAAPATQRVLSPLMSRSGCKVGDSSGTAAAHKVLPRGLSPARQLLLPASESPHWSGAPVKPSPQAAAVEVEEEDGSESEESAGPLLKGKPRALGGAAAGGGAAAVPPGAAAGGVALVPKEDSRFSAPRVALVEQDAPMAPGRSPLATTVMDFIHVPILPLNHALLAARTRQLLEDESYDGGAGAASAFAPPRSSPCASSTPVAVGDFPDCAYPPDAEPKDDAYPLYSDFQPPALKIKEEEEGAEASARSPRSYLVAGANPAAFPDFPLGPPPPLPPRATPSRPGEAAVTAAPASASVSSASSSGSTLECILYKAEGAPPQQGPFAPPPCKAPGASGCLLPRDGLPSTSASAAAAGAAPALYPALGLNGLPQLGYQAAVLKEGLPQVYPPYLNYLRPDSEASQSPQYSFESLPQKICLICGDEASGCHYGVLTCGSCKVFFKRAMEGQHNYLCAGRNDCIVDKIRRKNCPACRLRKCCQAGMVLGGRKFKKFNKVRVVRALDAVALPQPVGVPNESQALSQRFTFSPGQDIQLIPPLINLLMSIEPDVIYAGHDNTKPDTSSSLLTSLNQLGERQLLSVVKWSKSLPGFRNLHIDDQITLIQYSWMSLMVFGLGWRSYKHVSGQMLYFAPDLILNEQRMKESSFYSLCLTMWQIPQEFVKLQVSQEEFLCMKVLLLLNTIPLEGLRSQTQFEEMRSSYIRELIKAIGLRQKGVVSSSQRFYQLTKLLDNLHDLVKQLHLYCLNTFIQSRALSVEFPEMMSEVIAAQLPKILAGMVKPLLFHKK

Glucocorticoid receptor = biological target: T2, Glucocorticoid receptor (Homo sapiens, UniProt P04150); assay: Antagonist activity at glucocorticoid receptor expressed in A549 cells assessed as inhibition of corticoid-induced gene transcription by luciferase reporter gene assay; assay type: functional, cell-based
T2 sequence (P04150 whole entry): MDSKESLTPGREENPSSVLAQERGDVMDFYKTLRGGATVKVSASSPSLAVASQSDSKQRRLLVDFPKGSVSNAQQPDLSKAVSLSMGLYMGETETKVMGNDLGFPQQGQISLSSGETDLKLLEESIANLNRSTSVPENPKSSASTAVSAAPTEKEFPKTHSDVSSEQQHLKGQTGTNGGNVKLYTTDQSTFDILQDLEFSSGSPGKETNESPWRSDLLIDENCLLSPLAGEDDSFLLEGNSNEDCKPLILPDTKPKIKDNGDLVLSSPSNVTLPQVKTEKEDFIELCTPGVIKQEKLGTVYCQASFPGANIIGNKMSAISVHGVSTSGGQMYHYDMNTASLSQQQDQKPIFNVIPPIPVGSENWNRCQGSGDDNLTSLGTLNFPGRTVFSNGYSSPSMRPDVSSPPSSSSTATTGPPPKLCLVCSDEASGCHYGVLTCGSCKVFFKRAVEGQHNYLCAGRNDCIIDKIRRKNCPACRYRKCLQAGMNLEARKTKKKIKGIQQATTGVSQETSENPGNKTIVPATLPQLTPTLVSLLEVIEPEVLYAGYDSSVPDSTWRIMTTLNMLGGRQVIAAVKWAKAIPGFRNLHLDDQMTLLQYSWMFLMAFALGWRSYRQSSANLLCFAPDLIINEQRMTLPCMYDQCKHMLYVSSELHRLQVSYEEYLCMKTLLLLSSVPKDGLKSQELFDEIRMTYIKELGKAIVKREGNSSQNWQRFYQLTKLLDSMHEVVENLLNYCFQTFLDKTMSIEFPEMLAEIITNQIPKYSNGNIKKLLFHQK

| Structure (SMILES) | Ratio IC50 (Homo sapiens) | IC50 (Progesterone receptor) [nM] | IC50 (Glucocorticoid receptor) [nM] |
| --- | --- | --- | --- |
| C=C1OC(C)=N[C@]12CC[C@H]1[C@@H]3CCC4=CC(=O)CCC4=C3[C@@H](c3ccc(N(C)C)cc3)C[C@@]12C | 130 | 0.63 | 82 |
| C=C1OC=N[C@]12CC[C@H]1[C@@H]3CCC4=CC(=O)CCC4=C3[C@@H](c3ccc(N(C)C)cc3)C[C@@]12C | 30 | 18 | 540 |
| C=C1OC(CC)=N[C@]12CC[C@H]1[C@@H]3CCC4=CC(=O)CCC4=C3[C@@H](c3ccc(N(C)C)cc3)C[C@@]12C | 24 | 0.98 | 23 |
| C=C1OC(C)=N[C@]12CC[C@H]1[C@@H]3CCC4=CC(=O)CCC4=C3[C@@H](c3ccc(C(C)=O)cc3)C[C@@]12C | 780 | 0.59 | 460 |
| C=C1OC=N[C@]12CC[C@H]1[C@@H]3CCC4=CC(=O)CCC4=C3[C@@H](c3ccc(C(C)=O)cc3)C[C@@]12C | 171 | 82 | 14000 |

The remaining compounds from weak to strong by IC50 (Progesterone receptor), led by results:

| Ratio IC50 (Homo sapiens) | IC50 (Progesterone receptor) [nM] | IC50 (Glucocorticoid receptor) [nM] | Structure (SMILES) |
| --- | --- | --- | --- |
| 140 | 4.6 | 660 | C=C1OC(C)=N[C@]12CC[C@H]1[C@@H]3CCC4=CC(=O)CCC4=C3[C@@H](c3ccc(OC)c(F)c3)C[C@@]12C |
| > 10000 | 1 | > 10000 | C=C1OC(CC)=N[C@]12CC[C@H]1[C@@H]3CCC4=CC(=O)CCC4=C3[C@@H](c3ccc(OC)c(F)c3)C[C@@]12C |
| 620 | 0.34 | 210 | C=C1OC(CC)=N[C@]12CC[C@H]1[C@@H]3CCC4=CC(=O)CCC4=C3[C@@H](c3ccc(C(C)=O)cc3)C[C@@]12C |
